Columns and labels:
[1] = test system: non COX-1 dependent platelet function (NCDPF); experiment: Platelet function score (PFS) in aspirin challenge study; format: in vivo, human; conditions: for mean difference in Pre vs. Post PFS: before vs 3 hrs after single 325 mg aspirin, p<0.0001; for Post PFS: after first 325 mg dose
Procedure: A group of healthy adult volunteers (HV1) were recruited and a defined set of platelet function measurements, as described below, were made before aspirin (“Pre”) and 3-hrs after (“Post”) a single 325 mg tablet of aspirin. Subsequently, subjects were returned for a final assessment (“Final”) 2 weeks after 325 mg/day aspirin. This dose of aspirin was chosen to ensure complete suppression of platelet COX-1 activity in each participant. The 3-hour timepoint was chosen to measure the maximal inhibitory effect of aspirin.
(§1) Platelet function studies. Before each visit, subjects were asked to fast and to refrain from tobacco (during the preceding 24 hrs) and alcohol or intensive exercise on the day of testing. Phlebotomy was performed after 10 minutes of resting supine with minimal trauma or stasis at the venipuncture site using a 21-gauge needle into 3.2% sodium citrate tubes. The focus of these studies was around NCDPF and thus, the NCDPF assays were defined as the following: PFA100, and epinephrine, ADP, and collagen induced LTA. […] Serum thromboxane B2 and AA induced aggregation were chosen as measures of COX-1 activity and also added in vitro aspirin to the AA aggregation assay to further assess for any evidence of unsuppressed COX-1 activity.
(§2) Light transmittance aggregometry. Light transmittance aggregometry (LTA) was performed as previously described (Born (1964) Nature 202:95-96) using the following agonists: arachidonic acid (AA, Chrono-log, 0.5 mM), epinephrine (Chrono-Log, 10, 1, and 0.5 μM), ADP (Chrono-Log, 10, 5, and 1 μM), and collagen (Chrono-Log, 5 and 2 μg/ml). The area under the LTA curve (AUC) was chosen as the primary measure of aggregation because the AUC captures several features of the aggregometry curve that are each sensitive to the effects of aspirin: slope, maximal aggregation, and final aggregation. To standardize AUC measurements across individuals and visits the test duration was fixed at 12 minutes for epinephrine and six minutes for collagen, AA, and ADP.
Platelet Function Analyzer. PFA100 closure time with the use of the collagen/epinephrine cartridge was performed. […] Briefly, citrated whole blood was placed in the PFA100 chamber and blood was aspirated through an aperture in a collagen/epinephrine coated membrane. The amount of time (in seconds[s], up to a maximum of 300 s) until blood ceased to flow through the membrane aperture was recorded as the final result.
Platelet Function Score. […] A platelet function score was derived from a principal components analysis (PCA) of all platelet function measurements made in the HV1 cohort. PCA was chosen to quantify this biological factor. PCA is an unbiased, mathematical technique for reducing a collection of measurements down to a single “meta-measurement” that best describes the aggregate behavior of the set. For example, in the biological sciences, PCA can quantify population substructure in genome wide association studies, patterns of gene expression in microarray experiments, and metabolic pathways in metabolomic studies. In the present study, the input into the PCA was the following set of non-imputed measures from the HV1 cohort: the PFA100 closure time and the AUC from each concentration of ADP, epinephrine, and collagen LTA.

[2] = test system: non COX-1 dependent platelet function (NCDPF); experiment: In vitro addition of aspirin to PRP, epinephrine/ADP/collagen induced light transmittance aggregometry; format: cell-based, human; conditions: n=5 HV2 and n=15 DM on daily aspirin
Procedure: Light transmittance aggregometry. […] The area under the LTA curve (AUC) was chosen as the primary measure of aggregation because the AUC captures several features of the aggregometry curve that are each sensitive to the effects of aspirin: slope, maximal aggregation, and final aggregation. To standardize AUC measurements across individuals and visits the test duration was fixed at 12 minutes for epinephrine and six minutes for collagen, AA, and ADP.
Description of area under the curve (AUC) measurement. Using light transmittance aggregometry the percent aggregation is plotted over time to produce the upper curve similar to FIG. 21. The AUC is measured by the aggregometer over the duration of the test, which is fixed at 6 minutes for collagen and ADP and 12 minutes for epinephrine. Higher AUC values reflect higher maximal and residual aggregation, slope, and velocities.
In vitro aspirin. A stock solution of aspirin was created by dissolving acetylsalicylic acid (Sigma-Aldrich A5376) into DMSO and aliquots stored at −80 degrees Celsius. On the day of use, fresh aliquots were thawed, diluted in PBS, and stored at 4 degrees Celsius. […] The PRP was allowed to incubate with in vitro aspirin for 10 minutes at room temperature prior to the addition of agonist.

[3] = test system: COX-1 activity; experiment: Serum thromboxane B2 ELISA; format: in vivo, human; conditions: HV2; Final visit after 4 weeks 325 mg/day aspirin; range 0.1-2.0
Procedure: as §1

[4] = test system: COX-1 dependent platelet function; experiment: Arachidonic acid-induced platelet aggregation (light transmittance aggregometry), with and without in vitro aspirin; format: in vivo, human
Procedure: as §1, §2

[5] = test system: human promyelocytic cell line (HL60); conditions: HL60, in vitro aspirin vs vehicle-only control; cited from earlier work
[6] = test system: RUNX1 P1 and total transcripts in purified platelets; experiment: Platelet RNA RT-PCR for RUNX1 transcripts before and after aspirin exposure; format: in vivo, human; conditions: healthy volunteers, before vs after aspirin exposure
Procedure: Platelet purification and RNA isolation.
RNA was extracted from peripheral blood derived platelets using the miRvana miRNA Isolation Kit (Life Technologies) with acid-phenol chloroform (Life Technologies) separation. Due to the low concentration of available platelet RNA, concentration and integrity were assessed using the Agilent 2100 Bioanalyzer Pico chips (Agilent Technologies; Santa Clara, Calif.). The concentration was too low for accurate determination via standard spectrophotometric methods and for the Agilent Pico RIN algorithm to accurately determine a RIN quality score. As a result, quality was assessed by visualization of the Bioanalyzer lane curve. RNA samples with obvious 18S and 28S peaks, minimal degradation “noise” between peaks, and no large aberrant peaks above or below the 18S and 28S bands were selected for further analysis. […]
Concentration and integrity of available platelet RNA were assessed using Agilent 2100 Bioanalyzer Pico chips (Agilent Technologies; Santa Clara, Calif.). […] As a result, quality was assessed by visualization of the Bioanalyzer trace. […]
A loading test plate was run using 4 samples; 2 from each experimental group. […] Optimal loading would result in expression of our lowest targets of interest resulting in Cq values <35, abundant transcripts >18 and a minimal loss of low quantity samples to high RNA loading requirements. […]

## CC(=O)Oc1ccccc1C(=O)O [aspirin, acetylsalicylic acid]
[1]; DM diabetics, 95% CI 3.6-4.8
  mean difference in Pre vs. Post PFS: 4.2
[1]; HV1, after two weeks of 325 mg/day aspirin, shifted higher, CI 0.1-0.8, p=0.01
  mean difference Post and Final PFS: 0.5
[1]; HV1 healthy volunteers, 95% CI 3.0-3.7
  mean difference in Pre vs. Post PFS: 3.4
[1]; HV2, after four weeks of 325 mg/day aspirin, shift to higher PFS, CI 0.2-1.2, p=0.004
  mean difference between Post and Final PFS: 0.7
[1]; HV2 healthy volunteers, 95% CI 4.5-5.2
  mean difference in Pre vs. Post PFS: 4.8
[1]; HV2 subjects that decreased their Final PFS
  Post PFS: 1.68
[1]; HV2 subjects that increased their Final PFS
  Post PFS: −1.0
[2]; ADP 5 μM, CI −6.9-2.4%, p=0.3
  mean change aggregation with in vitro aspirin: −2.3%
[2]; collagen 2 mg/ml, CI −6.9, 10.0, p=0.71
  mean change aggregation with in vitro aspirin: 1.5%
[2]; epinephrine 0.5, CI −0.8-4.8%, p=0.2
  mean change aggregation with in vitro aspirin: 2.0%
[3]
  serum thromboxane B2 mean concentration: 0.3 ng/mL
[4]; HV2 and DM subjects, Final visit on daily 325 mg aspirin, range 0-7%
  AAA median % aggregation: 3.0%
[4]; in vitro aspirin 53 μM added after 325 mg oral dose, HV2 and DM
  effect of in vitro addition of aspirin on AAA: no further effect
[4]; single 325 mg dose, all HV2 and DM subjects, AA 0.5 mM
  COX-1 dependent platelet function, as assessed by AAA: effectively suppressed
[5]
  expression of a P1-specific RUNX1 probe set: increased
  expression of the remaining RUNX1 probe sets: did not change
  expression of two P2 RUNX1 probe sets: decreased
[6]
  change in total RUNX1 gene expression: minimal changes
  up (or down) regulation in P1 RUNX1 expression: ≤ 5 fold
